In US20250270610A1, “Improving the Efficiency of PAL-Catalyzed Protein Ligation By A Cascade Enzymatic Scheme” (priority 2022, published 2025):

Legend:
[1] = system: A431 cells which overexpresses EGFR; experiment: Flow cytometry assay of binding to A431 cells; assay type: cell-based; conditions: 100 nM, 30 min on ice; FIG. 5b and c (confocal and flow cytometry)
Procedure: FIG. 20 depicts the fluorescence intensity (measured by flow cytometry, λex=488 nm) of untreated A431 and MCF7 cells (ctrl) shown in dark grey fill (Blank), and cells treated with either GFP (100 nM, 30 min), or with ZEGFR-Fc-GFP (100 nM, 30 min) (shown by arrow), respectively. Forward scatter (FSC-A) versus side scatter (SSC-A) were used to gate intact cells.
To study binding capacities of ZEGFR-Fc-GFP, A-431 (ATCC, USA) and MCF-7 (ATCC, US) live cells were washed three times with PBS (HyClone, USA), trypsinized by 0.05% Trypsin-EDTA (Gibco, USA), and then resuspended in chilled DMEM (Gibco, USA) with 10% FBS (Gibco, USA). One million cells of each cell line were then incubated with ZEGFR-Fc-GFP (100 nM) and GFP (100 nM) on ice for 30 min. After incubation, the cells were washed with chilled PBS for three times and analyzed by the Fortessa X-20 flow cytometer (BD, USA). The cytometer was set to record 10,000 events per sample, to excite the fluorophore with 488 nm laser, and to collect emitting fluorescent signals in 530/30 nm. The generated raw data were analyzed by Flowjo™ 10 (BD, USA).

EGFR-positive A431 cells = experiment: Live cell confocal imaging of binding to A431 cells; assay type: cell-based; conditions: confocal fluorescence microscopy, 100 nM, 30 min on ice; FIG. 21
Procedure: ZEGFR-FC-GFP staining of the membrane was much brighter than that for GFP when the top left panel of each block is compared. The plasma membrane was stained with PKH26 red-fluorescent dye and is shown in the lower left panel and merged image of each block. Scale bar=20 μm.
To visualize ZEGFR-Fc-GFP binding activities, A431 and MCF-7 cells were seeded on an 8-well chamber slide (ibidi, USA) and incubated at 37° C. under 5% CO2 overnight. The cells were stained with 2 μM PKH26 red-fluorescent dye (Sigma, USA) for 10 min at 37° C. The stained cells were then incubated with ZEGFR-Fc-GFP (100nM) and GFP (100nM) on ice for 30 min. After incubation, the cells were washed with chilled PBS for three times and fixed with cold 4% formaldehyde for 15 min. The fixed cells were imaged by the LSM 980 confocal microscope (Zeiss, Germany). Microscopic key settings are as follows: 1) excitation laser wavelengths: 488 nm and 561 nm; 2) emission fillers: 507-552 nm and 575-620 nm; 3) imaging mode: Z-stack. The 3D Z-stack images were processed into 2D images by the technique MIP (maximum intensity projection) using the Zen software (Zeiss, Germany).

Substance: ZEGFR-Fc-GFP: dual-ligated product of dimeric fusion protein ZEGFR-Fc-NQL (affibody ZEGFR and IgG Fc domain) with GI-GGGSGGGS-GFP
- binding towards A431 cells [1]: specific binding
- staining of the membrane compared with GFP (EGFR-positive A431 cells): much brighter
